Where “and” joins values, the source holds several entries; their conditions need not be identical. Equal values may be shown once. After the bases stand the sugars from the 5' end (letter, count) and the backbone: PS all phosphorothioate, else s phosphorothioate and o phosphodiester by linkage. Methylation of C is not given here. e = 2'-O-(2-methoxyethyl) (MOE); k = constrained ethyl (cEt); d = 2'-deoxy (DNA)
Target: IRF4
Details: ASO

Sequence	target mRNA inhibition (SK-MEL-28, 4 µM)	target mRNA inhibition (MM.1R, 1 µM)	other results
GCTTCTTCAATTTACA (sugars k3 d10 k3, PS)	45%	–	–
TCAGATGTCACTGATT (sugars k3 d10 k3, PS)	35%	–	–
TCTGAGATGTCCAGCT (sugars k3 d10 k3, PS)	45%	–	–
CTCTTCAGGCACCCAC (sugars k3 d10 k3, PS)	–	13%	–
GCACAGACATACCTAC (sugars k3 d10 k3, PS)	46%	–	–
CCAAATGACTTAGTCA (sugars k3 d10 k3, PS)	51%	–	–
CAGATTGAATCCATAT (sugars k3 d10 k3, PS)	–	20%	–
CCTACACAGGCTAATC (sugars k3 d10 k3, PS)	13%	–	–
TAGTATGAGAAACGGC (sugars e1 k2 d9 k2 e2, PS)	–	38%	–
CGCAGCATCGAACTCC (sugars k3 d10 k3, PS)	33%	–	–
GGGTTAAAGATGTTAC (sugars k3 d10 k3, PS)	50%	–	–
CCCTAGATAACATGAG (sugars k3 d10 k3, PS)	17%	–	–
CCACAAGAAAGAGACC (sugars k3 d10 k3, PS)	-9%	–	–
CCAAGTAATTTTAAGG (sugars k3 d10 k3, PS)	34%	–	–
TTACTAATTCCATAGA (sugars k3 d10 k3, PS)	–	3%	–
GCCTTCAGCGGTTTCC (sugars k3 d10 k3, PS)	–	4%	–
CAGTGACTTGCATCCA (sugars kdddddddddkekeke, PS)	–	19%	–
GCTCCTGAGACAGACT (sugars k3 d10 k3, PS)	56%	–	–
ATAAACACCCCTTCTT (sugars k3 d10 k3, PS)	30%	–	–
GTGTTCCAGGAGATAT (sugars k3 d10 k3, PS)	–	30%	–
TTCATGTAAAGTCTGC (sugars kddddddddddkekek, PS)	–	2% and -18%	–
TGGTAGGTAGGCACCT (sugars k3 d10 k3, PS)	35%	–	–
ATGCGGAGGTTCCTTG (sugars k3 d10 k3, PS)	–	47% and 52%	–
GAGCACTGCATGAAAG (sugars k3 d10 k3, PS)	51%	–	–
GAGTCCCCGGCTCCTC (sugars k3 d10 k3, PS)	25%	–	–
CAATTTATGCCATGGA (sugars k3 d10 k3, PS)	62%	–	target mRNA inhibition (MM.1R, 0.074 µM): -4%; target mRNA inhibition (MM.1R, 0.222 µM): 5%; target mRNA inhibition (MM.1R, 0.666 µM): 9%; target mRNA inhibition (MM.1R, 2 µM): 40%
CCAGGTTCATGCCCCG (sugars k3 d10 k3, PS)	54%	–	–
CGGGAGCCCGGAGGAA (sugars k3 d10 k3, PS)	–	-3%	–

Sequence	target mRNA inhibition (SK-MEL-28, 4 µM)	target mRNA inhibition (MM.1R, 1 µM)	other results
TTCAACTTGTGACCCA (sugars k3 d10 k3, PS)	49%	–	–
GTCTCAGTTTGAAGCA (sugars k3 d10 k3, PS)	69% and 74%	–	–
ATTACTCTTAGGCACA (sugars k3 d10 k3, PS)	–	30%	–
GTGATAGCTGAGCTGA (sugars kkdddddddddekeke, PS)	–	24%	–
CCACAAGCAGTGATGT (sugars k3 d10 k3, PS)	–	16%	–
GTTAAGTACTTGGACA (sugars k3 d10 k3, PS)	32%	–	–
CACATCAATGTTTTAG (sugars kkddddddddddkeke, PS)	–	25% and 39%	–
TCCAAAGGGTTCAGTG (sugars k3 d10 k3, PS)	–	7%	–
GCATTTTATCATCCGA (sugars kkdddddddddekeke, PS)	–	44%	–
TCTGACAAGAACTGCT (sugars k3 d10 k3, PS)	12%	–	–
AACAGGCTATCAGGAT (sugars k3 d10 k3, PS)	17%	–	–
CTGCATCGAGATCAGT (sugars k3 d10 k3, PS)	52%	–	–
TTTGTACGGGTCTGAG (sugars k3 d10 k3, PS)	20%	–	–
AAAGAGGCACCCTCCT (sugars k3 d10 k3, PS)	-38%	–	–
TTCAGTGCTCACTGCT (sugars k3 d10 k3, PS)	69%	–	–
GCTTATCAATGCCAAG (sugars k3 d10 k3, PS)	40%	–	–
CTCCTATAACTTCTCC (sugars k3 d10 k3, PS)	33%	–	–
CAGAAACCCTCATCAC (sugars k3 d10 k3, PS)	4%	–	–
TATAGAATTAGGTGCT (sugars k3 d10 k3, PS)	40%	–	–
TATTTATGCCCTCGCT (sugars k3 d10 k3, PS)	26%	–	–
GAGAAACGAGCCAGTG (sugars k3 d10 k3, PS)	39%	–	–
GGGTTAAAGGAGTGCA (sugars k3 d10 k3, PS)	–	0%	–
TCTTTGGGATTCTATA (sugars k3 d10 k3, PS)	60%	–	–
GAAACGGCCTGGAGGT (sugars k3 d10 k3, PS)	–	17%	–
TACAGGACAGGTAAAG (sugars k3 d10 k3, PS)	–	-29%	–
AGCATCCGCTTGGAGA (sugars k3 d10 k3, PS)	37%	–	–
CATGAGCTCGGTCAAC (sugars k3 d10 k3, PS)	–	-1%	–

From the OligoGym collection
